Earlier results in paper PMC9781794, “Polyphosphazene-Based Biomaterials for Biomedical Applications” (International Journal of Molecular Sciences, 2022).

Columns and labels:
[1] = system: bacterial species (Gram-positive, Gram-negative, and Mycobacteria); set-up: method as in PMID 36040292; conditions: both Gram-positive and Gram-negative strains; ref [108]
[2] = buffer

Row | Substance | anti-bacterial activity [1] | anti-bacterial potency range [1] | degradation half-life (T1/2) [2]
1 | [N3P3(NHCy)6{Au(PPh3)}2{Ag(PPh3)}](NO3)3 [Sample 13] | excellent | nanomolar range | 
2 | valine |  |  | ~ 1 year
